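Where inhibition never reached the appropriate level, the endpoint shown equals the highest concentration tested. Otherwise, values were interpolated linearly from a five-concentration, 48-hour dose response in 96-well plates. The concentration for 50% growth inhibition is given as GI50.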 Activity calls are given as the source filed them. Cut-off read from the data, not from the text of the source: active = GI50 up to about 1.1 µM and inactive = higher. Residues, ends and D or L forms follow the SMILES beside them. *: point of attachment. OBn = c1ccc(CO*)cc1
Columns and labels:
Assay in all cases: NCI-60 cell line screen, 48 h
[1] = test system: RXF 393
[2] = test system: K562
[3] = test system: T47D
[4] = test system: U-251
[5] = test system: SF-295
[6] = test system: A498
[7] = test system: SK-OV-3
[8] = test system: LOX IMVI
[9] = test system: HCT-15
[10] = test system: HL-60
[11] = test system: MCF7
[12] = test system: SF-539
[13] = test system: 786-0
[14] = test system: SW-620
[15] = test system: NCI/ADR-RES
[16] = test system: MDA-MB-231
[17] = test system: SN12C
[18] = test system: Hs-578T

| SMILES | GI50 [1] | GI50 [2] | GI50 [3] | GI50 [4] | GI50 [5] | GI50 [6] | GI50 [7] | GI50 [8] | GI50 [9] | GI50 [10] | GI50 [11] | GI50 [12] | GI50 [13] | GI50 [14] | GI50 [15] | GI50 [16] | GI50 [17] | GI50 [18] |
| --- | --- | --- | --- | --- | --- | --- | --- | --- | --- | --- | --- | --- | --- | --- | --- | --- | --- | --- |
| COc1ccc(C23OCC(Cc4cc(OC)c(OC)cc42)C3COC(C)=O)cc1OC (configuration not stated) | > 100 µM (inactive) | > 100 µM (inactive) | > 100 µM (inactive) | > 100 µM (inactive) | > 100 µM (inactive) | > 100 µM (inactive) | > 100 µM (inactive) | > 100 µM (inactive) | > 100 µM | > 100 µM (inactive) | > 100 µM (inactive) | > 100 µM (inactive) | > 100 µM (inactive) | > 100 µM (inactive) | 25.5 µM (inactive) | > 100 µM (inactive) |  |  |
| Cc1cc(Br)c(N2C3=C(CC4=C2CCCC4=O)C(=O)CCC3)c(Br)c1 | 25.8 µM (inactive) | 13.2 µM (inactive) |  | 32.9 µM (inactive) |  | 94.8 µM (inactive) | > 100 µM (inactive) | 23.7 µM (inactive) | 29.1 µM | 32.7 µM (inactive) | 33.3 µM (inactive) | > 100 µM (inactive) | 96.6 µM (inactive) | 31.6 µM (inactive) | 32.1 µM (inactive) |  | 74.1 µM (inactive) | > 100 µM (inactive) |
| Clc1sc(Cl)c2c1[C@H](Cl)C[C@@H]2Cl |  | 6 µM (inactive) | 17.6 µM (inactive) | 20.9 µM (inactive) | 35.3 µM (inactive) | 84.1 µM (inactive) | 54 µM (inactive) | 9.46 µM (inactive) | 20.2 µM |  | 6.52 µM (inactive) | 18.7 µM (inactive) | 19.6 µM (inactive) | 3.87 µM (inactive) | 15.9 µM (inactive) | 32.1 µM (inactive) | 16.8 µM (inactive) | 15.9 µM (inactive) |
| O=C(CN1CCCC1)Nc1ccc2c(c1)C1Oc3ccccc3CC1CO2 (configuration not stated) |  | 38.6 µM (inactive) | 40.1 µM (inactive) | 21.2 µM (inactive) | 20.5 µM (inactive) | > 100 µM (inactive) | > 100 µM (inactive) | 21.4 µM (inactive) | 18.6 µM | 46.6 µM (inactive) | 17.3 µM (inactive) | 18.8 µM (inactive) | 24.7 µM (inactive) | 17.3 µM (inactive) | 73.3 µM (inactive) | 22.9 µM (inactive) | > 100 µM (inactive) |  |
| COC1OC(COCc2ccc(Cl)cc2)C(OCc2ccc(Cl)cc2)C1N=[N+]=[N-] (configuration not stated) | 27.1 µM (inactive) | 49.8 µM (inactive) |  | > 100 µM (inactive) | > 100 µM (inactive) |  | > 100 µM (inactive) |  | > 100 µM |  |  |  | 4.7 µM (inactive) | > 100 µM (inactive) |  |  | > 100 µM (inactive) |  |
| CC1(C)CC(=O)C2=C(C1)c1c(ccc3ccccc13)NC2c1cn(Cc2ccc(Cl)cc2)c2ccccc12 (configuration not stated) |  | 50.9 µM (inactive) | 7.19 µM (inactive) | 56.8 µM (inactive) | 31.2 µM (inactive) | 2.55 µM (inactive) | > 100 µM (inactive) | 38.7 µM (inactive) | > 100 µM | 37.8 µM (inactive) | > 100 µM (inactive) | > 100 µM (inactive) | > 100 µM (inactive) | > 100 µM (inactive) | 52.6 µM (inactive) | > 100 µM (inactive) | > 100 µM (inactive) | 74.1 µM (inactive) |
| O=C1c2c(ccc3c2CCCC3)CC1Cc1ccc2c(c1)CCCC2 (configuration not stated) | 14.3 µM (inactive) | 36.1 µM (inactive) | 0.787 µM (active) | 67 µM (inactive) | 33.8 µM (inactive) | > 100 µM (inactive) | > 100 µM (inactive) | 63.8 µM (inactive) | 36.1 µM | 5.46 µM (inactive) | 27.2 µM (inactive) | > 100 µM (inactive) | 64 µM (inactive) | 61.7 µM (inactive) |  | 37.2 µM (inactive) | 45 µM (inactive) | 20 µM (inactive) |
| O=c1c2cc(I)ccc2nc(-c2cccs2)n1/N=C/c1ccccc1 | > 100 µM (inactive) | 7.18 µM (inactive) | 80.5 µM (inactive) | > 100 µM (inactive) | > 100 µM (inactive) |  | > 100 µM (inactive) | > 100 µM (inactive) | > 100 µM | > 100 µM (inactive) | > 100 µM (inactive) | > 100 µM (inactive) | > 100 µM (inactive) | > 100 µM (inactive) | > 100 µM (inactive) |  | > 100 µM (inactive) |  |
| NC(CCC(=O)OCc1ccccc1)C(=O)NC(CCC(=O)OCc1ccccc1)C(=O)O (configuration not stated) (H-Glu(OBn)-Glu(OBn)-OH; configuration not given here) | > 100 µM (inactive) | > 100 µM (inactive) | > 100 µM (inactive) | > 100 µM (inactive) | > 100 µM (inactive) |  | > 100 µM (inactive) | > 100 µM (inactive) | > 100 µM | > 100 µM (inactive) | > 100 µM (inactive) |  | > 100 µM (inactive) | > 100 µM (inactive) | > 100 µM (inactive) | > 100 µM (inactive) | > 100 µM (inactive) | > 100 µM (inactive) |
